Test system: up to 32 different microorganisms
Experiment: in vitro antibacterial activity (MIC), agar dilution on Brain Heart Infusion (BHI) agar with Steers replicator
Format: cell-based
Details: unit assumed
Method in brief: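 Agar dilution, 12 plates/compound; inoc 1:100 (1:10 Micrococcus, Streptococcus); 35°-37° C, 20–24 h. Erythromycin A reference plate plus drug-free growth controls at start and end. Endpoint = no growth/slight haze/sparse colonies.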

| SMILES | MIC (organism code AA) [µg/mL] | MIC (organism code CC) [µg/mL] | MIC (organism code DD) [µg/mL] | MIC (organism code EE) [µg/mL] | MIC (organism code FF) [µg/mL] | MIC (organism code GG) [µg/mL] | MIC (organism code HH) [µg/mL] | MIC (organism code II) [µg/mL] | MIC (organism code JJ) [µg/mL] | MIC (organism code KK) [µg/mL] | MIC (organism code LL) [µg/mL] | MIC (organism code MM) [µg/mL] | MIC (organism code NN) [µg/mL] | MIC (organism code OO) [µg/mL] | MIC (organism code PP) [µg/mL] | MIC (organism code QQ) [µg/mL] | MIC (organism code RR) [µg/mL] | MIC (organism code SS) [µg/mL] | MIC (organism code TT) [µg/mL] | MIC (organism code UU) [µg/mL] | further results |
| --- | --- | --- | --- | --- | --- | --- | --- | --- | --- | --- | --- | --- | --- | --- | --- | --- | --- | --- | --- | --- | --- |
| CC[C@H]1OC(=O)[C@H](C)C(=O)[C@H](C)[C@@H](O[C@@H]2O[C@H](C)C[C@H](N(C)C)[C@H]2O)[C@@](C)(OCC=NOCc2ccc3ncccc3c2)C[C@@H](C)C(=O)[C@H](C)[C@H]2NC(=O)O[C@@]21C [Example 234, Compound of Formula (IX): L is CO, T is NH, R is —CH2CH═NOCH2(6-quinolyl)] | 0.1 | > 100 | 0.2 | 0.2 | 0.1 | > 100 | 0.1 | 0.05 | ≤ 0.005 | 0.05 | 0.01 | 100 | 0.2 | 0.01 | 0.1 | 50 | 0.39 | 50 | > 100 | 0.78 | MIC (organism code BB): 0.1 µg/mL; MIC (organism code VV): 0.1 µg/mL; MIC (organism code WW): 2 µg/mL; MIC (organism code XX): 0.03 µg/mL; MIC (organism code YY): 0.03 µg/mL; MIC (organism code ZZ): > 128 µg/mL; MIC (organism code ZZA): 0.25 µg/mL |
| CC[C@H]1OC(=O)[C@H](C)C(=O)[C@H](C)[C@@H](O[C@@H]2O[C@H](C)C[C@H](N(C)C)[C@H]2O)[C@@](C)(OCC=NOCc2cccc3ccccc23)C[C@@H](C)C(=O)[C@H](C)[C@H]2NC(=O)O[C@@]21C [Example 235, Compound of Formula (IX): L is CO, T is NH, R is —CH2CH═NOCH2(1-naphthyl)] | 0.2 | > 100 | 0.2 | 0.2 | 0.2 | > 100 | 0.2 | 0.05 | 0.01 | 0.01 | 0.01 | 25 | 0.2 | 0.05 | 0.39 | > 100 | 0.78 | > 100 | > 100 | 0.78 | MIC (organism code BB): 0.2 µg/mL; MIC (organism code VV): 3.1 µg/mL; MIC (organism code WW): 4 µg/mL; MIC (organism code XX): 0.03 µg/mL; MIC (organism code YY): 0.03 µg/mL; MIC (organism code ZZ): 32 µg/mL; MIC (organism code ZZA): 0.5 µg/mL |
| CC[C@H]1OC(=O)[C@H](C)C(=O)[C@H](C)[C@@H](O[C@@H]2O[C@H](C)C[C@H](N(C)C)[C@H]2O)[C@@](C)(OCC=NOCc2ccc3ccccc3c2)C[C@@H](C)C(=O)[C@H](C)[C@H]2NC(=O)O[C@@]21C [Example 236, Compound of Formula (IX): L is CO, T is NH, R is —CH2CH═NOCH2(2-naphthyl)] | 0.2 | > 100 | 0.2 | 0.2 | 0.2 | > 100 | 0.2 | 0.05 | 0.05 | 0.05 | 0.01 | 25 | 0.2 | 0.05 | 0.1 | 50 | 0.39 | > 100 | > 100 | 0.39 | MIC (organism code BB): 0.2 µg/mL; MIC (organism code VV): 0.2 µg/mL; MIC (organism code WW): 4 µg/mL; MIC (organism code XX): 0.03 µg/mL; MIC (organism code YY): 0.03 µg/mL; MIC (organism code ZZ): 32 µg/mL |
| CC[C@H]1OC(=O)[C@H](C)C(=O)[C@H](C)[C@@H](O[C@@H]2O[C@H](C)C[C@H](N(C)C)[C@H]2O)[C@@](C)(OCCNOCc2ccccc2)C[C@@H](C)C(=O)[C@H](C)[C@H]2NC(=O)O[C@@]21C [Example 237, Compound of Formula (IX): L is CO, T is NH, R is —CH2CH2NHOCH2(phenyl)] | 0.39 | > 100 | 0.39 | 0.39 | 0.39 | > 100 | 0.39 | 0.1 | 0.05 | 0.05 | 0.05 | > 100 | 0.2 | 0.05 | 0.39 | > 100 | 0.39 | > 100 | > 100 | 0.78 | MIC (organism code BB): 0.39 µg/mL; MIC (organism code VV): 0.39 µg/mL; MIC (organism code WW): 16 µg/mL; MIC (organism code XX): 0.03 µg/mL; MIC (organism code YY): 0.03 µg/mL; MIC (organism code ZZ): > 128 µg/mL; MIC (organism code ZZA): 0.05 µg/mL |
| CC[C@H]1OC(=O)[C@H](C)C(=O)[C@H](C)[C@@H](O[C@@H]2O[C@H](C)C[C@H](N(C)C)[C@H]2O)[C@@](C)(OCCNOCc2ccc([N+](=O)[O-])cc2)C[C@@H](C)C(=O)[C@H](C)[C@H]2NC(=O)O[C@@]21C [Example 238, Compound of Formula (IX): L is CO, T is NH, R is —CH2CH2NHOCH2(4-NO2)-phenyl] | 0.2 | > 100 | 0.39 | 0.39 | 0.39 | > 100 | 0.39 | 0.05 | 0.02 | 0.02 | 0.02 | > 100 | 0.2 | 0.05 | 0.2 | 100 | 0.39 | > 100 | > 100 | 0.2 | MIC (organism code BB): 0.2 µg/mL; MIC (organism code VV): 0.1 µg/mL; MIC (organism code WW): 8 µg/mL; MIC (organism code XX): 0.03 µg/mL; MIC (organism code YY): 0.03 µg/mL; MIC (organism code ZZ): > 64 µg/mL; MIC (organism code ZZA): 0.25 µg/mL |
| CC[C@H]1OC(=O)[C@H](C)C(=O)[C@H](C)[C@@H](O[C@@H]2O[C@H](C)C[C@H](N(C)C)[C@H]2O)[C@@](C)(OCC(=O)c2ccccc2)C[C@@H](C)C(=O)[C@H](C)[C@H]2NC(=O)O[C@@]21C [Example 239, Compound of Formula (IX): L is CO, T is NH, R is —CH2C(O)-phenyl] | 6.2 | > 100 | 6.2 | 6.2 | 6.2 | > 100 | 6.2 | 1.56 | 0.39 | 0.39 | 0.39 | > 100 | 1.56 | 0.39 | 1.56 | > 100 | 6.1 | > 100 | > 100 | 50 | MIC (organism code BB): 6.2 µg/mL; MIC (organism code VV): 3.1 µg/mL; MIC (organism code WW): 64 µg/mL; MIC (organism code XX): 0.25 µg/mL; MIC (organism code YY): 0.25 µg/mL; MIC (organism code ZZ): > 128 µg/mL; MIC (organism code ZZA): 1 µg/mL |
| CC[C@H]1OC(=O)[C@H](C)C(=O)[C@H](C)[C@@H](O[C@@H]2O[C@H](C)C[C@H](N(C)C)[C@H]2O)[C@@](C)(OCC(=O)c2ccc(F)cc2)C[C@@H](C)C(=O)[C@H](C)[C@H]2NC(=O)O[C@@]21C [Example 240, Compound of Formula (IX): L is CO, T is NH, R is —CH2C(O)-(4-F-phenyl)] | 3.1 | > 100 | 6.2 | 3.1 | 3.1 | > 100 | 3.1 | 0.78 | 0.39 | 0.39 | 0.39 | > 100 | 0.78 | 0.39 | 1.56 | > 100 | 3.1 | > 100 | > 100 | 6.2 | MIC (organism code BB): 3.1 µg/mL; MIC (organism code VV): 1.56 µg/mL; MIC (organism code WW): 32 µg/mL; MIC (organism code XX): 0.25 µg/mL; MIC (organism code YY): 0.25 µg/mL; MIC (organism code ZZ): > 128 µg/mL; MIC (organism code ZZA): 1 µg/mL |
| CC[C@H]1OC(=O)[C@H](C)C(=O)[C@H](C)[C@@H](O[C@@H]2O[C@H](C)C[C@H](N(C)C)[C@H]2O)[C@@](C)(OCC=NNC(=O)c2ccccc2)C[C@@H](C)C(=O)[C@H](C)[C@H]2NC(=O)O[C@@]21C [Example 241, Compound of Formula (IX): L is CO, T is NH, R is —CH2CH═NNHC(O)phenyl] | 3.1 | > 100 | 6.2 | 6.2 | 6.2 | > 100 | 6.2 | 1.56 | 0.39 | 1.56 | 0.78 | > 100 | 6.2 | 0.78 | 3.1 | > 100 | 1.56 | > 100 | > 100 | 100 | MIC (organism code VV): 6.2 µg/mL; MIC (organism code WW): 16 µg/mL; MIC (organism code XX): 0.5 µg/mL; MIC (organism code YY): 0.25 µg/mL; MIC (organism code ZZ): > 128 µg/mL; MIC (organism code ZZA): 4 µg/mL |
| CCC1OC(=O)C(C)C(=O)C(C)C(OC2OC(C)CC(N(C)C)C2O)C(C)(OCCCc2cnc3ccccc3c2)CC(C)C(=O)C(C)C2NC(=O)OC12C (stereo not drawn) [Example 242, Compound of Formula (IX): L is CO, T is NH, R is —CH2CH2CH2(3-quinolyl)] | 0.2 | > 100 | 0.2 | 0.2 | 0.2 | > 100 | 0.39 | 0.1 | 0.02 | 0.05 | 0.01 | > 100 | 0.2 | 0.05 | 0.39 | > 100 | 0.78 | > 100 | > 100 | 0.78 | MIC (organism code VV): 0.39 µg/mL; MIC (organism code WW): 8 µg/mL; MIC (organism code XX): 0.03 µg/mL; MIC (organism code YY): 0.03 µg/mL; MIC (organism code ZZ): > 128 µg/mL; MIC (organism code ZZA): 0.25 µg/mL |

From USRE39591E1, “6-O-substituted ketolides having antibacterial activity” (Abbott Laboratories, priority 1996, dated 2007)
